{"source": "paper PMC9669016", "about": "“First-in-human phase Ia study of the PI3Kα inhibitor CYH33 in patients with solid tumors” (Nature Communications, 2022)", "key": {"[1]": {"system": "more than 300 other kinases, including PIKK family", "design": "method as in Investigator's Brochure (IB) 12", "conditions": "ref Investigator's Brochure (IB) 12; cited from earlier work"}, "CYP2B6": {"system": "CYP2B6", "design": "method as in Investigator's Brochure (IB) 12", "conditions": "up to 100 µM; ref Investigator's Brochure (IB) 12; cited from earlier work"}, "mice bone marrow": {"system": "mice bone marrow", "design": "method as in Investigator's Brochure (IB) 12", "conditions": "ref Investigator's Brochure (IB) 12; cited from earlier work"}, "[2]": {"system": "EC074 esophageal cancer PDX", "design": "method as in Investigator's Brochure (IB) 12", "conditions": "25 mg/kg oral for 21 days; ref Investigator's Brochure (IB) 12; cited from earlier work"}, "CYP2D6": {"system": "CYP2D6", "design": "method as in Investigator's Brochure (IB) 12", "conditions": "up to 100 µM; ref Investigator's Brochure (IB) 12; cited from earlier work"}, "salmonella typhimurium": {"system": "salmonella typhimurium", "conditions": "cited from earlier work"}, "[3]": {"system": "KYSE510 human esophageal cancer xenograft", "design": "method as in Investigator's Brochure (IB) 12", "conditions": "12.5 mg/kg oral for 21 days; ref Investigator's Brochure (IB) 12; cited from earlier work"}, "[4]": {"system": "EC104 esophageal cancer PDX", "design": "method as in Investigator's Brochure (IB) 12", "conditions": "12.5 mg/kg oral for 21 days; ref Investigator's Brochure (IB) 12; cited from earlier work"}, "[5]": {"design": "method as in Investigator's Brochure (IB) 12", "conditions": "ref Investigator's Brochure (IB) 12, cited from earlier work; for absolute bioavailability: 1 mg/kg"}, "CYP2C8": {"system": "CYP2C8", "design": "method as in Investigator's Brochure (IB) 12", "conditions": "up to 100 µM; ref Investigator's Brochure (IB) 12; cited from earlier work"}, "human hepatocytes": {"system": "human hepatocytes", "design": "method as in Investigator's Brochure (IB) 12", "conditions": "ref Investigator's Brochure (IB) 12; cited from earlier work"}, "[6]": {"system": "KYSE410, KYSE510, EC104, EC063, EC074 xenograft models", "design": "method as in Investigator's Brochure (IB) 12", "conditions": "ref Investigator's Brochure (IB) 12, cited from earlier work"}, "[7]": {"design": "method as in Study Protocol CYH33-101 Table 2", "conditions": "in H2O; ref Study Protocol CYH33-101 Table 2; cited from earlier work"}, "SD rats": {"system": "SD rats", "assay": "Long-term toxicity assay, SD rats", "type": "in vivo", "conditions": "3 mg/kg x 0.162 x 60 kg", "from_the_text": "Shanghai Haihe Biopharma Co., Ltd. Protocol No.: CYH33-101, Version: 5.0 […]\nin hepatocytes was sign ificantly higher in dogs than in other species. The extent of hydrolytic metabolism of amide bonds in monk ey hepatocytes was low, but the extent of oxidative metabolism (M5, M6) was higher than that in other animal species. Oxidative metabolites of CYH33 were not detected in hum an hepatocytes, so th e metabolic effect of oxidative metabolic enzymes in human liver on C YH33 was not evaluated. The liver and intestine homogenates of dogs were collected, confirming that the amide hydrolysis of CYH33 was mainly catalyzed by carboxylesterase in liver. […]\ntransport across Caco-2 cells in the concentration range of 2.00 - 10.0 µM.\nFor detailed results of nonclinical pharmacokinetic and product metabol ism studies of […]\n1.2.3 Results of Nonclinical Toxicological Study […]\ntidal volume (TV), respiratory volume (MV) per minute and frequency of respiration (Rf) […]\non the central n ervous system (CNS) noticed.\nThe acute toxicity assay confirmed that the MTD was ≥ 600 mg/kg in SD rats, and the maximum tolerated dose (MTD) was >120 mg/kg in beagle dogs. The long-term toxicity […]\nwere greater than those in males, and the highest non-severely toxic dose (HNSTD) was 8 mg/kg in males and 3 mg/kg in females. […]"}, "pregnant rats": {"system": "pregnant rats", "design": "method as in Investigator's Brochure (IB) 12", "conditions": "ref Investigator's Brochure (IB) 12; cited from earlier work"}}, "note": "Like-named read-outs stand apart in the source and are kept apart here."}
{"smiles": "COC(=O)Nc1cc(C(F)(F)F)c(-c2nc(N3CCOCC3)c3cc(CN4CCN(S(C)(=O)=O)CC4)cn3n2)cn1", "note": "[CYH33, methyl (5-(6-((4-(methylsulfonyl)piperazin-1-yl)methyl)−4-morpholinopyrrolo[2,1-f][1,2,4]triazin-2-yl)−4-(trifluoromethyl)pyridin-2-yl)carbamate]", "values": [{"measurement": "effects on more than 300 other kinases, including other PIKK family members", "setting": "[1]", "result": "slight"}, {"measurement": "inhibition of CYP2B6", "setting": "CYP2B6", "result": "did not inhibit"}, {"measurement": "mice bone marrow micronucleus test result", "setting": "mice bone marrow", "result": "negative"}, {"measurement": "T/C ratio", "setting": "[2]", "result": 36.78, "unit": "%"}, {"measurement": "inhibition of CYP2D6", "setting": "CYP2D6", "result": "did not inhibit"}, {"measurement": "reverse mutation assay (Ames test) result", "setting": "salmonella typhimurium", "result": "negative"}, {"measurement": "T/C ratio", "setting": "[3]", "result": "approximately 30%"}, {"measurement": "T/C ratio", "setting": "[4]", "result": "approximately 30%"}, {"measurement": "absolute bioavailability", "setting": "[5]; female rats", "result": 53.7, "unit": "%"}, {"measurement": "plasma clearance CL", "setting": "[5]; female rats", "result": 2.04, "unit": "L/h/kg"}, {"measurement": "t1/2", "setting": "[5]; female rats", "result": 6.7, "unit": "h"}, {"measurement": "exposure AUC0-t in female rats relative to male rats", "setting": "[5]; intragastric administration", "result": "more than 12 times"}, {"measurement": "absolute bioavailability", "setting": "[5]; male rats", "result": 19.0, "unit": "%"}, {"measurement": "plasma clearance CL", "setting": "[5]; male rats", "result": 0.29, "unit": "L/h/kg"}, {"measurement": "t1/2", "setting": "[5]; male rats", "result": "1.3 to 4.5", "unit": "h"}, {"measurement": "Vss, steady-state volume of distribution", "setting": "[5]; rats", "result": 1.96, "unit": "L/kg"}, {"measurement": "accumulation after continuous administration for 7 days", "setting": "[5]; rats", "result": "not significant"}, {"measurement": "inhibition of CYP2C8", "setting": "CYP2C8", "result": "did not inhibit"}, {"measurement": "oxidative metabolites in human hepatocytes", "setting": "human hepatocytes", "result": "not detected"}, {"measurement": "T/C%", "setting": "[6]; 50 mg/kg dose group, subcutaneous xenograft tumor model", "result": "< 20", "unit": "%"}, {"measurement": "effective dose in nude mice", "setting": "[6]; oral for 21 days", "result": 12.5, "unit": "mg/kg"}, {"measurement": "pKa", "setting": "[7]", "result": "4.86 ± 0.06"}, {"measurement": "human equivalent dose (HED) of long-term HNSTD of rats (females), critical toxic dose", "setting": "SD rats", "result": "about 30 mg"}, {"measurement": "no-observed-adverse-effect level (NOAEL) for embryo-fetal development", "setting": "pregnant rats", "result": 0.10, "unit": "mg/kg"}]}
